# Laboratory results taken from ChEMBL document CHEMBL2203139, “Synthetic bicyclic iminosugar derivatives fused thiazolidin-4-one as new potential HIV-RT inhibitors” (Bioorg Med Chem Lett, 2012).
# Molecular target: Human immunodeficiency virus type 1 reverse transcriptase (Human immunodeficiency virus 1, UniProt Q72547)
# Assay: Inhibition of HIV1 reverse transcriptase incubated for 1 hr by colorimetric assay
row,IC50 [µM],SMILES
1,13,O=C1CS[C@H]2[C@H](O)[C@H](O)[C@H](O)CN12
2,19,O=C1CS[C@@H]2[C@H](O)[C@H](O)[C@H](O)CN12
3,4.22,O=C1S[C@H]2[C@H](O)[C@H](O)[C@H](O)CN2C1=O
4,10.2,O=C1C[S+]([O-])[C@H]2[C@H](O)[C@H](O)[C@H](O)CN12 (some centres not stated)
5,1.74,O=C1C(O)S[C@H]2[C@H](O)[C@H](O)[C@H](O)CN12 (some centres not stated)
6,5.2,O=C1S[C@@H]2[C@H](O)[C@H](O)[C@H](O)CN2C1=O
7,2.45,O=C1C[S+]([O-])[C@@H]2[C@H](O)[C@H](O)[C@H](O)CN12 (some centres not stated)
